# Data as given in PMC4259467, “Molecular Cloning, Characterization and Positively Selected Sites of the Glutathione S-Transferase Family from Locusta migratoria” (PLoS ONE, 2014).
# Legend:
# Assay in all cases: spectrophotometric GST assay, steady state
# Assay type in all cases: biochemical
# Settings in all cases: co-substrate GSH; pH and temperature not given; read-out: K m ^CDNB
# [1] = target: T1, LmGSTS9 (Locusta migratoria, UniProt V9Q315)
# T1 construct: gene GSTs9; full-length ORF in pET28a, E. coli BL21(DE3), His-tag Ni-NTA purified
# From the text: spectrophotometric GST assay, steady state on LmGSTS9
# [2] = target: T2, LmGSTD3 (Locusta migratoria, UniProt V9Q4H6)
# T2 construct: gene GSTd3; full-length ORF in pET28a, E. coli BL21(DE3), His-tag Ni-NTA purified
# T2 sequence (V9Q4H6 1-222): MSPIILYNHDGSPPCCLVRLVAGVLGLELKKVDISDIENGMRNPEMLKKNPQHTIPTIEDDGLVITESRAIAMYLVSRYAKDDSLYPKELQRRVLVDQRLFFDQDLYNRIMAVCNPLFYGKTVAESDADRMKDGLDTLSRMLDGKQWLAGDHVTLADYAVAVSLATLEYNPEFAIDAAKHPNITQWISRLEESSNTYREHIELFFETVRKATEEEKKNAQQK
# From the text: spectrophotometric GST assay, steady state on LmGSTD3
# [3] = target: T3, LmGSTS10 (Locusta migratoria, UniProt V9Q3X5)
# T3 construct: gene GSTs10; full-length ORF in pET28a, E. coli BL21(DE3), His-tag Ni-NTA purified
# T3 sequence (V9Q3X5 1-204): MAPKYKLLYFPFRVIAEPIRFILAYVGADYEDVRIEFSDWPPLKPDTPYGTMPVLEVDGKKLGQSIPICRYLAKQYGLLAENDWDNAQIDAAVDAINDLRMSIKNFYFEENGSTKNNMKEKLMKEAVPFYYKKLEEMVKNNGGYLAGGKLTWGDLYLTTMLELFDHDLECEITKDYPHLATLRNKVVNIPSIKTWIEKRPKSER
# From the text: spectrophotometric GST assay, steady state on LmGSTS10
# [4] = target: T4, LmGSTO1 (Locusta migratoria, UniProt V9Q3Y6)
# T4 construct: gene GSTo1; full-length ORF in pET28a, E. coli BL21(DE3), His-tag Ni-NTA purified
# T4 sequence (V9Q3Y6 1-242): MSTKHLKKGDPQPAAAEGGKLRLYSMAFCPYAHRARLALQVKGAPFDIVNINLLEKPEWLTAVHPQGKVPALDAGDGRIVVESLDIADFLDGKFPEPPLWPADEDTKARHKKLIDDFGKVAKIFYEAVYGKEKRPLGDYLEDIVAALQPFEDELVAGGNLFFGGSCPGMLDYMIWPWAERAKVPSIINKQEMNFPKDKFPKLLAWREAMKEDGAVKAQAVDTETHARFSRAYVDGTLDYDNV
# From the text: spectrophotometric GST assay, steady state on LmGSTO1
# [5] = target: T5, LmGSTE4 (Locusta migratoria, UniProt V9Q318)
# T5 construct: gene GSTe4; full-length ORF in pET28a, E. coli BL21(DE3), His-tag Ni-NTA purified
# T5 sequence (V9Q318 1-221): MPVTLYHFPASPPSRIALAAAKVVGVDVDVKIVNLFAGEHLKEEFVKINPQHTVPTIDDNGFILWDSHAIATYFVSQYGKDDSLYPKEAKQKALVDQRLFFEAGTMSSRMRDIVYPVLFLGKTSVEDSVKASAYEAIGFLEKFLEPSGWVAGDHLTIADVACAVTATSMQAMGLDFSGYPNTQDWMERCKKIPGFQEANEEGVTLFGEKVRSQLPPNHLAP
# From the text: spectrophotometric GST assay, steady state on LmGSTE4
# [6] = target: T6, LmGSTE5 (Locusta migratoria, UniProt V9Q3X9)
# T6 construct: gene GSTe5; full-length ORF in pET28a, E. coli BL21(DE3), His-tag Ni-NTA purified
# T6 sequence (V9Q3X9 1-221): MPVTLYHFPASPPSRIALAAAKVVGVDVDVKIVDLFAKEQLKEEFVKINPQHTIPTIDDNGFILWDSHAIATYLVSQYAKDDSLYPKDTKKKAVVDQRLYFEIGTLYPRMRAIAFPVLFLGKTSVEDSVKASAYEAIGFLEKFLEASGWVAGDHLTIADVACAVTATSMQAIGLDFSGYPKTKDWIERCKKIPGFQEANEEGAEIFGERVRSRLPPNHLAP
# From the text: spectrophotometric GST assay, steady state on LmGSTE5
# [7] = target: T7, LmGSTD7 (Locusta migratoria, UniProt V9Q328)
# T7 construct: gene GSTd7; full-length ORF in pET28a, E. coli BL21(DE3), His-tag Ni-NTA purified
# T7 sequence (V9Q328 1-233): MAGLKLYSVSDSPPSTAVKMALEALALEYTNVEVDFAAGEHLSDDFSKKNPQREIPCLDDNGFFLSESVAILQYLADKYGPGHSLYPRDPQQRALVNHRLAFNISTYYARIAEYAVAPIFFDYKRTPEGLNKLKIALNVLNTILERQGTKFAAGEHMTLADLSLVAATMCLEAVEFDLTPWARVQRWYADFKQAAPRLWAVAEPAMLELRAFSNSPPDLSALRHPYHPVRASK
# From the text: spectrophotometric GST assay, steady state on LmGSTD7
# [8] = target: T8, LmGSTS8 (Locusta migratoria, UniProt V9Q487)
# T8 construct: gene GSTs8; full-length ORF in pET28a, E. coli BL21(DE3), His-tag Ni-NTA purified
# From the text: spectrophotometric GST assay, steady state on LmGSTS8
# [9] = target: T9, LmGSTD1 (Locusta migratoria, UniProt E7BTM5)
# T9 construct: full-length ORF in pET28a, E. coli BL21(DE3), His-tag Ni-NTA purified
# T9 sequence (E7BTM5 1-218): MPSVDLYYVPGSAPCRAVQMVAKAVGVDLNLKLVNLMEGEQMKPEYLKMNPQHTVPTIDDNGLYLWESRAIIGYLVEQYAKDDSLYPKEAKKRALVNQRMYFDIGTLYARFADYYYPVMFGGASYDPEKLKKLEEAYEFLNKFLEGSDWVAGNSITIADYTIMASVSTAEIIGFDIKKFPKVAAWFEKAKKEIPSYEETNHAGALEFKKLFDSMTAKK
# From the text: spectrophotometric GST assay, steady state on LmGSTD1
# T1 sequence (V9Q315 1-204): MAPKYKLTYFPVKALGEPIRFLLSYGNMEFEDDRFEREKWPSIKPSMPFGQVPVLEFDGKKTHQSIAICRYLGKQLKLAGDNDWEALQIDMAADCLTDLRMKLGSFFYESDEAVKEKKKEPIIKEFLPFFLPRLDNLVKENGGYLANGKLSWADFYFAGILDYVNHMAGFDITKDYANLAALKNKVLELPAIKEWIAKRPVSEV
# T8 sequence (V9Q487 1-204): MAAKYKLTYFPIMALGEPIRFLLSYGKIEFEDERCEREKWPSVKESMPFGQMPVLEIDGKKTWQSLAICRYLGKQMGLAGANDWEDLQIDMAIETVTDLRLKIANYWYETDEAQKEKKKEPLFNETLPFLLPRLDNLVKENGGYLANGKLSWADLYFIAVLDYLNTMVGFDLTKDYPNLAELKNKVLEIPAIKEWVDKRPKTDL
smiles,measurement,setting,value
O=[N+]([O-])c1ccc(Cl)c([N+](=O)[O-])c1 [CDNB],Km,[1],351 ± 26 µM
same,Km,[2],102 ± 10 µM
same,Km,[3],311 ± 18 µM
same,Km,[4],228 ± 45 µM
same,Km,[5],102 ± 8 µM
same,Km,[6],26 ± 2 µM
same,Km,[7],492 ± 39 µM
same,Km,[8],100 ± 6 µM
same,Km,[9],139 ± 8 µM
